Assay type in all cases: in vivo
The subject of assay [1] is Echinochloa crus-galli (ECHCG). The assay can be described thus: Post-emergence biological efficacy (Example 14). To be noted: post-emergence, 1,000 g/ha, after 13 days; for pest or weed control at 1000 g/ha: Echinochloa crus-galli, 312 h, read-out: Percentage damage ECHCG. As for the experimental part: (§1) Seeds of Alopecurus myosuroides (ALOMY), Setaria faberi (SETFA), Echinochloa crus-galli (ECHCG), Solanum nigrum (SOLNI), Amaranthus retroflexus (AMARE) and Ipomea hederaceae (IPOHE) were sown in standard soil in pots. After cultivation for 8 days under controlled conditions in a glasshouse (at 24/16° C., day/night; 14 hours light; 65% humidity), the plants were sprayed with an aqueous spray solution derived from the formulation of the technical active ingredient in acetone/water (50:50) solution containing 0.5% Tween 20 (polyoxyethylene sorbitan monolaurate, CAS RN 9005-64-5) to give a final dose of 250 or 1000 g/ha of test compound. The test plants were then grown on under controlled conditions in a glasshouse (at 24/16° C., day/night; 14 hours light; 65% humidity) and watered twice daily. After 13 days the test was evaluated (100=total damage to plant; 0=no damage to plant).

Assay [2] deals with Ipomea hederaceae (IPOHE). Kind of assay: Post-emergence biological efficacy (Example 14). To be noted: post-emergence, 1,000 g/ha, after 13 days; for pest or weed control at 1000 g/ha: Ipomoea hederacea, 312 h, read-out: Percentage damage IPOHE. On the procedure:
as §1

In assay [3] the test system is Amaranthus retroflexus (AMARE). The assay can be described thus: Post-emergence biological efficacy (Example 14). The settings on record: post-emergence, 1,000 g/ha, after 13 days; for pest or weed control at 1000 g/ha: Amaranthus retroflexus, 312 h, read-out: Percentage damage AMARE. As for the experimental part: as §1
In assay [4] the test system is Setaria faberi (SETFA). The assay can be described thus: Post-emergence biological efficacy (Example 14). To be noted: post-emergence, 1,000 g/ha, after 13 days; for pest or weed control at 1000 g/ha: Setaria faberi, 312 h, read-out: Percentage damage SETFA. As for the experimental part:
as §1

The test system of assay [5] is Alopecurus myosuroides (ALOMY). The assay can be described thus: Post-emergence biological efficacy (Example 14). To be noted: post-emergence, 1,000 g/ha, after 13 days; for pest or weed control at 1000 g/ha: Alopecurus myosuroides, 312 h, read-out: Percentage damage ALOMY. As for the experimental part: as §1
Assay [6] relates to Solanum nigrum (SOLNI). Kind of assay: Post-emergence biological efficacy (Example 14). To be noted: post-emergence, 1,000 g/ha, after 13 days; for pest or weed control at 1000 g/ha: Solanum nigrum, 312 h, read-out: Percentage damage SOLNI. As for the experimental part:
as §1

The test system of assay [7] is Echinochloa crus-galli (ECHCG). Kind of assay: Pre-emergence biological efficacy (Example 13). To be noted: pre-emergence, 1,000 g/ha, after 13 days; for pest or weed control at 1000 g/ha: Echinochloa crus-galli, 312 h, read-out: Percentage damage ECHCG. As for the experimental part: (§2) Seeds of Alopecurus myosuroides (ALOMY), Setaria faberi (SETFA), Echinochloa crus-galli (ECHCG), Solanum nigrum (SOLNI), Amaranthus retroflexus (AMARE) and Ipomea hederaceae (IPOHE) were sown in standard soil in pots. After cultivation for one day under controlled conditions in a glasshouse (at 24/16° C., day/night; 14 hours light; 65% humidity), the plants were sprayed with an aqueous spray solution derived from the formulation of the technical active ingredient in acetone/water (50:50) solution containing 0.5% Tween 20 (polyoxyethylene sorbitan monolaurate, CAS RN 9005-64-5) to give a final dose of 250 or 1000g/ha of test compound. The test plants were then grown under controlled conditions in the glasshouse (at 24/16° C., day/night; 14 hours light; 65% humidity) and watered twice daily. After 13 days the test was evaluated (100 =total damage to plant; 0 =no damage to plant).

Assay [8] deals with Ipomea hederaceae (IPOHE). Kind of assay: Pre-emergence biological efficacy (Example 13). To be noted: pre-emergence, 1,000 g/ha, after 13 days; for pest or weed control at 1000 g/ha: Ipomoea hederacea, 312 h, read-out: Percentage damage IPOHE. On the procedure:
as §2

Assay [9] relates to Amaranthus retroflexus (AMARE). The assay can be described thus: Pre-emergence biological efficacy (Example 13). To be noted: pre-emergence, 1,000 g/ha, after 13 days; for pest or weed control at 1000 g/ha: Amaranthus retroflexus, 312 h, read-out: Percentage damage AMARE. As for the experimental part:
as §2

Assay [10] has as its system Setaria faberi (SETFA). Kind of assay: Pre-emergence biological efficacy (Example 13). The settings on record: pre-emergence, 1,000 g/ha, after 13 days; for pest or weed control at 1000 g/ha: Setaria faberi, 312 h, read-out: Percentage damage SETFA. On the procedure: as §2
Assay [11] deals with Alopecurus myosuroides (ALOMY). The assay can be described thus: Pre-emergence biological efficacy (Example 13). The settings on record: pre-emergence, 1,000 g/ha, after 13 days; for pest or weed control at 1000 g/ha: Alopecurus myosuroides, 312 h, read-out: Percentage damage ALOMY. On the procedure: as §2
The subject of assay [12] is Solanum nigrum (SOLNI). Kind of assay: Pre-emergence biological efficacy (Example 13). The settings on record: pre-emergence, 1,000 g/ha, after 13 days; for pest or weed control at 1000 g/ha: Solanum nigrum, 312 h, read-out: Percentage damage SOLNI. On the procedure: as §2

This is an account of results in patent publication US20120115724A1, “METHOD OF CONTROLLING UNDESIRED VEGETATION” (SYNGENTA CROP PROTECTION LLC, priority 2009, published 2012).

The structures appear in SMILES notation.

`C/C=C/c1c(N)nc(-c2ccc(Cl)c(N(C)C)c2F)nc1C(=O)OC` [Compound 12, (E)-4-Amino-2-(4-chloro-3-dimethylamino-2-fluorophenyl)-6-methoxy-carbonyl-5-(prop-1-enyl)-pyrimidine]: the pest or weed control at 1000 g/ha in assay [1] is 80%; in [2], 40%; in assay [3] it was 100%; in assay [4], 80%; in [5], 80%; in assay [6], 80%. Further, the pest or weed control at 1000 g/ha came to 90% in assay [7]; 0% in assay [8]; 100% in assay [9]; 80% in assay [10]; 70% in [11]; 80% in assay [12].
`C=Cc1c(NCc2ccco2)nc(-c2ccc(Cl)c(N(C)C)c2F)nc1C(=O)OC` [Compound 13, 2-(4-Chloro-3-dimethylamino-2-fluorophenyl)-5-ethenyl-4-(furan-2-ylmethylamino)-6-methoxycarbonyl-pyrimi-dine]: the pest or weed control at 1000 g/ha is 80% in assay [1]; 40% in assay [2]; 100% in [3]; 80% in assay [4]; 70% in [5]; 100% in assay [6]. For the same compound, the pest or weed control at 1000 g/ha came out at 90% in [7]; 20% in assay [8]; 90% in assay [9]; 60% in [10]; 70% in assay [11]; 90% in assay [12].
In the case of `C=Cc1c(NCc2ccccc2F)nc(-c2ccc(Cl)c(OC)c2F)nc1C(=O)OC` [Compound 14, 2-(4-Chloro-2-fluoro-3-methoxyphenyl)-5-ethenyl-4-(2-fluorophenylmethylamino)-6-methoxycarbonyl-pyrimi-dine], the pest or weed control at 1000 g/ha in [1] worked out at 0%; in [2], 60%; in assay [3], 100%; in assay [4], 0%; in [5], 0%; in assay [6] it was 90%. The pest or weed control at 1000 g/ha stood at 0% in [7]; 50% in assay [8]; 20% in [9]; 0% in assay [10]; 0% in [11]; 60% in assay [12].
On to `C=Cc1c(NCc2ccccc2[N+](=O)[O-])nc(-c2ccc(Cl)c(OC)c2F)nc1C(=O)OC` [Compound 15, 2-(4-Chloro-2-fluoro-3-methoxyphenyl)-5-ethenyl-6-methoxycarbonyl-4-(2-nitrophenylmethyl-amino)-pyrimidine], for which the pest or weed control at 1000 g/ha in assay [1] stood at 90%; in [2], 90%; in assay [3] it was 100%; in [4], 70%; in [5], 70%; in assay [6] it was 90%. The pest or weed control at 1000 g/ha turned out to be 70% in assay [7]; 100% in [8]; 100% in assay [9]; 0% in assay [10]; 50% in assay [11]; 100% in assay [12].
As to `C=Cc1c(NCc2ccccc2[N+](=O)[O-])nc(-c2ccc(Cl)c(N(C)C)c2F)nc1C(=O)OC` [Compound 16, 2-(4-Chloro-3-dimethylamino-2-fluorophenyl)-5-ethenyl-6-methoxycarbonyl-4-(2-nitrophenylmethyl-amino)-pyrimidine], the pest or weed control at 1000 g/ha in [1] turned out to be 70%; in assay [2], 60%; in assay [3], 100%; in [4] it was 90%; in [5], 70%; in [6], 80%. Besides, the pest or weed control at 1000 g/ha in [7] was determined as 70%; in assay [8], 0%; in assay [9] it was 50%; in [10], 70%; in assay [11] it was 60%; in assay [12], 30%.
On to `C=Cc1c(NC2CCC2)nc(-c2ccc(Cl)c(OC)c2F)nc1C(=O)OC` [Compound 24, 2-(4-Chloro-2-fluoro-3-methoxyphenyl)-4-cyclobutylamino-5-ethenyl-6-methoxycarbonyl pyrimidine], for which the pest or weed control at 1000 g/ha is 40% in assay [1]; 70% in assay [2]; 100% in assay [3]; 10% in assay [4]; 10% in assay [5]; 90% in [6]. In addition, the pest or weed control at 1000 g/ha in assay [7] was 50%; in assay [8], 80%; in assay [9] it was 100%; in assay [10] it was 0%; in assay [11] it was 10%; in assay [12], 80%.
In the case of `C=Cc1c(NCc2ccco2)nc(-c2ccc(Cl)c(OC)c2F)nc1C(=O)O` [Compound 35, 2-(4-Chloro-2-fluoro-3-methoxyphenyl)-5-ethenyl-4-(furan-2-ylmethylamino)-pyrimidine-6-carboxylic acid], the pest or weed control at 1000 g/ha in assay [1] stood at 80%; in [2], 70%; in [3], 100%; in assay [4] it was 80%; in assay [5], 70%; in assay [6], 90%. Moreover, the pest or weed control at 1000 g/ha in assay [7] came to 90%; in assay [8], 100%; in assay [9] it was 100%; in [10], 90%; in assay [11] it was 70%; in assay [12] it was 100%.
In the case of `C=Cc1c(N)nc(-c2ccc(Cl)c(N(C)C)c2F)nc1C(=O)OCCCCCCCC` [Compound 41, 4-Amino-2-(4-chloro-3-dimethylamino-2-fluorophenyl)-5-ethenyl-6- ^noctyloxycarbonyl-pyrimidine], the results for the “Percentage damage ECHCG” value in [1] and in [7] were 80% and 100%, respectively. For the same compound, the “Percentage damage IPOHE” value was found to be 80% in assay [2] and 0% in assay [8]. The “Percentage damage AMARE” value in assay [3] and in [9] was 100% throughout. The “Percentage damage SETFA” value in assay [4] was 60%; in assay [10] it was 90%. The “Percentage damage ALOMY” value in [5] and in [11] was 70% in each case. The “Percentage damage SOLNI” value is on record as 90% in assay [6] and 80% in assay [12].
